Experiments:
[1] = test system: Pythium irregulare isolate 779-2010; test: Germination of hot water treated spinach seed and survival of seedlings in soil inoculated with Pythium irregulare; format: in vivo; settings: for effect on the health of the growing plants: coating with only vitamin C (175 or 350 μg per seed)
Description: A solution of an iron salt, such as for instance Fe(II)SO4, and vitamin C in water is prepared by stirring of the chemicals until a clear, colorless solution is obtained.
A rotary coater is charged with seeds and the iron salt with vitamin C solution is added to the seeds via a spinning disk.
The seeds are dried after coating at 25° C./35 RH until the moisture in the seed is equal to the moisture of the seed before treatment with the iron salt solution.
The effect of the iron salt solution prepared in Example 1 on both germination and survival against Pythium is investigated on hot water treated spinach seeds of the variety Mandril. A suitable protocol for the hot water treatment is described in Extension Factsheet Ohio State University; Sally A. Miller and Melanie L Lewis Ivey; “Hot Water Treatment of Vegetable Seeds to Eradicate Bacterial Plant Pathogens in Organic Production Systems”.
The hot water treated spinach seeds were coated with an Fe(II)SO4 coating supplemented with vitamin C. Two different concentrations of Fe(II)SO4 and vitamin C in the coating solution were used: 1 μg Fe(II)SO4 per seed and 1.1 molar equivalents (Meq.) vitamin C, and 250 μg Fe(II)SO4 per seed and 1.1 Meq. vitamin C. As a control, hot water treated seeds without coating and untreated seeds were used.
Seeds were sown in trays. Germination of the seeds was assessed in trays without any inoculum. The effect of the coating on the survival of seedlings was assessed in trays inoculated with Pythium irregulare isolate 779-2010.
(§1) Trays without the inoculum were prepared by mixing+/−10 L of sowing soil with 1 L of tap water in white trays. In total, 117 sowing holes were made in the trays with a press. To prevent any interaction between treatments, only 1 treatment per tray was sown. For each treatment, 3 replicates of 117 seeds were sown. The seeds were topped with two cups (diameter 12 cm) of sowing soil containing 5 grams of inoculum media. Trays were placed in a controlled climate cell at 20° C., LID->14/10 and a RH of 60%. The number of germinated seeds was counted at 7 days, and the amount of surviving seedlings was counted 7 and 14 days after sowing and inoculation. Trays were physically separated from trays containing Pythium inoculum, to prevent cross-contamination.
The inoculum was prepared by growing Pythium irregulare on fresh V8 plates for 3 days at 28° C. After incubation, the spores and mycelium were harvested by adding 20 ml of sterile PBS to the plate and scraping it with a sterile spatula. This inoculum was added to the sowing soil.
as §1, with “with” for “without the”, “treatment 3,” for “treatment, 3”, “(mixed thoroughly in a bucket before topping off).” for “media.”, “inoculation.” for “inoculation. Trays were physically separated from trays containing Pythium inoculum, to prevent cross-contamination.”
The experiment of Example 2 was repeated with the following modifications:
the spinach seed used are of the varieties Platypus and Meerkat […]

fungal growth = test: Reducing fungal growth on plant seedlings and plants (general statement); format: in vivo; settings: general statement in the description, no test details
damping-off [2] = test: Cornsalad seed sown in soil from a field known to suffer from damping-off, healthy seedlings; format: in vivo; settings: 500 μg Fe(II)SO4 per seed, no vitamin C, 7, 11, 17 and 24 days after sowing
Description: FIG. 7A is a graph showing the effect of hot water treatment of cornsalad seeds, and subsequent treatment with 500 μg/seed of Fe(II)SO4. The effect is expressed in the percentage of seedlings that are still alive and healthy 7, 11, 17 and 24 days after sowing in soil known to suffer from damping-off.
Cornsalad seed was coated with 500 μg/Fe(II)SO4 per seed as described in Example 1, except that no vitamin C was added. The seed was sown in soil from a field known to suffer from damping-off. The percentage of healthy seedlings was determined 7, 11, 17 and 24 days after sowing.

damping-off [3] = test: Beetroot seed sown in a field known to suffer from damping-off, healthy seedlings; format: in vivo; settings: beetroot variety Zeppo, 500 μg Fe(II)SO4 per seed, no vitamin C, 14 and 21 days after sowing
Description: FIG. 6 is a graph showing the effect of treatment of seeds of the beetroot variety Zeppo with 500 μg/seed of Fe(II)SO4. The effect is expressed in the number of seedlings that are still alive and healthy 14 and 21 days after sowing.
Seed of the beetroot variety Zeppo was coated with 500 μg/Fe(II)SO4 per seed as described in Example 1, except that no vitamin C was added. The seed was sown in a field known to suffer from damping-off. The number of healthy seedlings was determined 14 days and 21 days after sowing.

P. irregulare = test: Cornsalad seed sown in soil inoculated with P. irregulare, healthy seedlings; format: in vivo, Pythium irregulare; settings: 500 μg Fe(II)SO4 per seed, no vitamin C, 7, 11, 17 and 24 days after sowing
Description: FIG. 7B is a graph showing the effect of hot water treatment of cornsalad seeds, and subsequent treatment with 500 μg/seed of Fe(II)SO4. The effect is expressed in the percentage of seedlings that are still alive and healthy 7, 11, 17 and 24 days after sowing in soil inoculated with P. irregulare.
The experiment was also performed on the cornsalad seed when sown in soil inoculated with P. irregulare, prepared as described in Example 2. The percentage of healthy seedlings was determined 7, 11, 17 and 24 days after sowing.

[4] = test system: Fusarium oxysporum isolate MAFF103063; test: In vitro growth inhibition on PDA agar plates with imbedded coated spinach seeds, Fusarium; format: cell-based
Description: FIG. 4B is a schematic picture of an with Fusarium-infected agar plate (1) comprising untreated seeds (2) and seeds coated with 500 μg/seed Fe(II)SO4 (3). The growth of Fusarium was measured after 2 days, 4 days, and 7 days post-inoculation (dpi).
(§2) PDA agar plates were prepared in which spinach seeds of the variety Platypus coated with 250 μg Fe(II)SO4 per seed and 1.1 Meq. vitamin C, 500 μg Fe(II)SO4 per seed and 1.1 Meq. vitamin C, or 500 μg Fe(II)SO4 per seed, were imbedded and inoculated with Rhizoctonia isolate AU 14/243 or Fusarium oxysporum isolate MAFF103063.

[5] = test system: Rhizoctonia isolate AU 14/243; test: In vitro growth inhibition on PDA agar plates with imbedded coated spinach seeds, Rhizoctonia; format: cell-based
Description: FIG. 4A is a schematic picture of an with Rhizoctonia-infected agar plate (1) comprising untreated seeds (2) and seeds coated with 500 μg/seed Fe(II)SO4 (3). Plates were inoculated with Rhizoctonia in the center of the plates (4). The growth of Rhizoctonia was measured after 1 day, 2 days, and 4 days post-inoculation (dpi).
as §2

[6] = 4 days post inoculation, 250 μg Fe(II)SO4 per seed and 1.1 Meq. vitamin C, or 500 μg Fe(II)SO4 per seed alone
[7] = Platypus seed, 250 μg Fe(II)SO4 per seed and 1.1 Meq. vitamin C, or 500 μg Fe(II)SO4 per seed alone

O=C1O[C@H]([C@@H](O)CO)C(O)=C1O [vitamin C, reference compound]
effect on the health of the growing plants ([1]; spinach variety Meerkat, hot water treated): not observed | effect on the health of the growing plants ([1]; spinach variety Platypus, hot water treated): some effect

O=S(=O)([O-])[O-].O=S(=O)([O-])[O-].O=S(=O)([O-])[O-].[Fe+3].[Fe+3] [iron(III)sulfate]
effects in reducing fungal growth on the plant seedlings and plants (fungal growth): good effects

O=S(=O)([O-])[O-].[Fe+2] [Fe(II)SO4, iron(II)sulfate]
protection of cornsalad against damping-off (healthy seedlings) (damping-off [2]): protects cornsalad against damping-off | protection of beetroot against damping-off (healthy seedlings) (damping-off [3]): protects beetroot against damping-off | dose-effect response (seedlings alive and healthy 14 days after sowing) ([1]; spinach varieties Finwhale and Mandril, hot water treated, 50, 100, 150, 200 and 250 μg Fe(II)SO4 per seed): linear dose-effect response | doses effective to increase the germination and survival of hot-water treated seed ([1]; spinach varieties Finwhale and Mandril, dose per seed, dose to match untreated seeds depends on variety and/or batch): ≥ 50 µg | effect on the health of the plants ([1]; spinach varieties Platypus and Meerkat, hot water treated, 250 or 500 μg Fe(II)SO4 per seed, with or without 1.1 Meq. vitamin C): positive effect | protection of cornsalad against damping-off (healthy seedlings) (P. irregulare): protects cornsalad against damping-off | growth of the Fusarium isolate over the plate [4, 6]: the isolate covered the whole plate | inhibition of Fusarium growth (weaker when compared to 500 μg Fe(II)SO4 and vitamin C) [4, 7]: Inhibition was also observed | zone of inhibition around the coated seeds, Fusarium ([4]; after 7 days post-inoculation, 500 μg/seed Fe(II)SO4, not around untreated seeds): zone of inhibition (5) is still visible | growth of the Rhizoctonia isolate over the plate [5, 6]: the isolate covered the whole plate | inhibition of Rhizoctonia growth (weaker when compared to 500 μg Fe(II)SO4 and vitamin C) [5, 7]: Inhibition was also observed | zone of inhibition around the coated seeds, Rhizoctonia ([5]; after 4 days post-inoculation, 500 μg/seed Fe(II)SO4, not around untreated seeds): zone of inhibition (5) is still visible | effects in reducing fungal growth on the plant seedlings and plants (fungal growth): good effects

[Br-].[Br-].[Fe+2] [Iron(II)bromide]
effects in reducing fungal growth on the plant seedlings and plants (fungal growth): good effects

[Br-].[Br-].[Br-].[Fe+3] [iron(III)bromide]
effects in reducing fungal growth on the plant seedlings and plants (fungal growth): good effects

O=S(=O)([O-])[O-].O=S(=O)([O-])[O-].[Fe+3].[NH4+] [iron(III)ammonium sulfate]
effects in reducing fungal growth on the plant seedlings and plants (fungal growth): good effects

[Cl][Fe]([Cl])[Cl] [iron(III)chloride]
effects in reducing fungal growth on the plant seedlings and plants (fungal growth): good effects

O=S(=O)([O-])[O-].O=S(=O)([O-])[O-].[Fe+2].[NH4+].[NH4+] [iron(II)ammonium sulfate]
effects in reducing fungal growth on the plant seedlings and plants (fungal growth): good effects

[Cl][Fe][Cl] [iron(II)chloride]
effects in reducing fungal growth on the plant seedlings and plants (fungal growth): good effects
